Assays:
Assay type in all cases: in vivo, female SD rats
[1] = tested on: Myocardial Disorder Induced by Doxorubicin; assay: Relative weights of the hearts, myocardial disorder induced by doxorubicin; details: Test group 1: doxorubicin 13 mg/kg alone
From the text: Doxorubicin is used to produce disease-model animals of cardiomyopathy. […] The recombinant human erythropoietin (rHuEPO) is mainly used in the treatment of renal anemia etc., and has the effect to protect myocardium. The test group 3 is used to confirm the presence or absence of the inhibitory effect brought about by combining HTHQ and rHuEPO on myocardial disorder. […] Recombinant human erythropoietin was daily administered to the rats in test group 3 starting from 3 days before the administration of doxorubicin by intravenous injection. The number of animals in each group was 16. 8 animals of each group were sacrificed after collecting blood on day 7 and 14 after the administration of doxorubicin, and the autopsy of the hearts, the calculation of the relative weights of the hearts, the histopathologic examination of the hearts and the hematological examination were conducted. Myocardium is hypertrophied by fibrosing and the weight of the myocardium increases, and the relative weight of the heart tends to increase. […] Also, there was no significant difference between the other groups on day 7 and 14 after the administration (p<0.05).

[2] = tested on: Myocardial Disorder Induced by Doxorubicin; assay: Autopsy and gross pathology of the hearts, myocardial disorder induced by doxorubicin; details: test groups 1 to 3, doxorubicin 13 mg/kg; compared to the control group
Experimental: (§1) Doxorubicin is used to produce disease-model animals of cardiomyopathy. The doxorubicin and 2,3,5-trimethylhydroquinone-1-hexyl ether (HTHQ) as the hydroquinone derivative represented by the general formula (1) described above of the present invention were simultaneously administered to female SD rats of 4 week old after birth to examine the effect of the action. The test groups consisted of the control group to which sterile saline was administered; test group 1 to which doxorubicin (13 mg/kg body weight) alone was administered; test group 2 to which doxorubicin (13 mg/kg body weight) and HTHQ (50 mg/kg body weight) were administered in combination; and test group 3 to which doxorubicin (13 mg/kg body weight), HTHQ (50 mg/kg body weight) and recombinant human erythropoietin (400 IU/kg body weight) were administered in combination. The recombinant human erythropoietin (rHuEPO) is mainly used in the treatment of renal anemia etc., and has the effect to protect myocardium. The test group 3 is used to confirm the presence or absence of the inhibitory effect brought about by combining HTHQ and rHuEPO on myocardial disorder.
(§2) Doxorubicin was orally administered in a single dose to the rats in test groups 1 to 3. […]

[3] = tested on: Myocardial Disorder Induced by Doxorubicin; assay: Histopathologic examination of the hearts (light microscope), myocardial disorder induced by doxorubicin; details: Test group 1: doxorubicin 13 mg/kg alone
Experimental: as §1, with “The recombinant human erythropoietin (rHuEPO) is mainly used in the treatment of renal anemia etc., and has the effect to protect myocardium.” left out
Doxorubicin was orally administered in a single dose to the rats in test groups 1 to 3. 2,3,5-trimethylhydroquinone-1-hexyl ether (HTHQ) was orally administered to the rats in test groups 2 and 3 twice in total: 3 days before the administration of doxorubicin and on the day of the administration. Recombinant human erythropoietin was daily administered to the rats in test group 3 starting from 3 days before the administration of doxorubicin by intravenous injection. The number of animals in each group was 16. 8 animals of each group were sacrificed after collecting blood on day 7 and 14 after the administration of doxorubicin, and the autopsy of the hearts, the calculation of the relative weights of the hearts, the histopathologic examination of the hearts and the hematological examination were conducted.
“−” indicates “not found”, “+” indicates “mild”, “++” indicates “moderate”, and “+++” indicates “severe” in severity scores of the table.

[4] = tested on: Myocardial Disorder Induced by Doxorubicin; assay: Histopathologic examination of the hearts (transmission electron microscope), myocardial disorder induced by doxorubicin; details: Test group 1: doxorubicin 13 mg/kg alone; day 7
Experimental: as §1, with “The recombinant human erythropoietin (rHuEPO) is mainly used in the treatment of renal anemia etc., and has the effect to protect myocardium.” left out
Doxorubicin was orally administered in a single dose to the rats in test groups 1 to 3. 2,3,5-trimethylhydroquinone-1-hexyl ether (HTHQ) was orally administered to the rats in test groups 2 and 3 twice in total: 3 days before the administration of doxorubicin and on the day of the administration. […]

[5] = tested on: Creatine phosphokinase (CPK); assay: Creatine phosphokinase (CPK) value in blood, myocardial disorder induced by doxorubicin; details: Test group 1: doxorubicin 13 mg/kg alone; day 14; p<0.05
Experimental: as §1, §2

relative weight of the heart ([1]; Day 7 after administration): 0.3819 ± 0.0204% | relative weight of the heart ([1]; Day 14 after administration): 0.3626 ± 0.0221% | gross pathology of the hearts [2]: Apparent lesions were not observed | Severity score: Cell infiltration in interstitial tissue ([3]; Day 7 after administration): + | Severity score: Degeneration of myocardial cells ([3]; Day 7 after administration): ++ | Severity score: Loss and disorganization of myocardial fibers ([3]; Day 7 after administration): ++ | Severity score: Loss of intercalated discs ([3]; Day 7 after administration): + | Severity score: Loss of striations ([3]; Day 7 after administration): ++ | Severity score: Vacuolation of myocardial fibers ([3]; Day 7 after administration): + | Severity score: Cell infiltration in interstitial tissue ([3]; Day 14 after administration): − | Severity score: Degeneration of myocardial cells ([3]; Day 14 after administration): +++ | Severity score: Loss and disorganization of myocardial fibers ([3]; Day 14 after administration): +++ | Severity score: Loss of intercalated discs ([3]; Day 14 after administration): ++ | Severity score: Loss of striations ([3]; Day 14 after administration): +++ | Severity score: Vacuolation of myocardial fibers ([3]; Day 14 after administration): +++
Structure (SMILES): COc1cccc2c1C(=O)c1c(O)c3c(c(O)c1C2=O)C[C@@](O)(C(=O)CO)C[C@@H]3O[C@H]1C[C@H](N)[C@H](O)[C@H](C)O1 [doxorubicin, reference compound]
findings in myocardial cells (transmission electron microscope) [4]: Loss of striations, loss of intercalated discs, swelling of mitochondria, loss of mitochondrial outer membrane and detachment of cristae etc. were observed | creatine phosphokinase (CPK) value [5]: significantly higher than that of the control group
